# Experimental data: ChEMBL document CHEMBL1142757, “Synthesis and biological evaluation of novel angularly fused polycyclic coumarins” (2005)
# Activity calls are given as the source filed them. The rule behind the calls is not given here.
# Legend:
# Rattus norvegicus [1] = assay: (§1) Antiinflammatory activity against Albino rat dosed at 100 mg/kg (3h); assay type: functional, organism-based; set-up: dose 100 mg/kg
# Mus musculus [2] = assay: Analgesic activity against Swiss albino mice dosed at and activity calculated as percentage maximum possible effect (% MPE); assay type: functional
# Rattus norvegicus [3] = assay: as §1; assay type: functional
# Mus musculus [4] = assay: Analgesic activity against Swiss albino mice dosed at 100 mg/kg and activity calculated as percentage maximum possible effect (% MPE); No activity; assay type: functional, organism-based; set-up: dose 100 mg/kg
# Rattus norvegicus [5] = assay: Antiinflammatory activity against Albino rat dosed at 400 mg/kg (3h); assay type: functional
# Rattus norvegicus [6] = assay: Antiinflammatory activity against Albino rat dosed at 200 mg/kg (3h); assay type: functional
# Rattus norvegicus [7] = assay: Antiinflammatory activity against Albino rat dosed at 300 mg/kg (3h); assay type: functional
# Mus musculus [8] = assay: Analgesic activity against Swiss albino mice dosed at 200 mg/kg and activity calculated as percentage maximum possible effect (% MPE); assay type: functional
# Mus musculus [9] = assay: Analgesic activity against Swiss albino mice dosed at 300 mg/kg and activity calculated as percentage maximum possible effect (% MPE); assay type: functional
# Mus musculus [10] = assay: Analgesic activity against Swiss albino mice dosed at 400 mg/kg and activity calculated as percentage maximum possible effect (% MPE); assay type: functional
# Rattus norvegicus [11] = assay: Antiinflammatory activity against Albino rat dosed at 300 mg/kg; assay type: functional
# Rattus norvegicus [12] = assay: Antiinflammatory activity against Albino rat dosed at 400 mg/kg; assay type: functional
# Rattus norvegicus [13] = assay: Antiinflammatory activity against Albino rat dosed at 200 mg/kg; assay type: functional
Structure (SMILES),inhibition (Rattus norvegicus [1]),MPE (Mus musculus [2]) [%],inhibition in vivo at 100 mg/kg (Rattus norvegicus [3]) [%],MPE (Mus musculus [4]),inhibition in vivo at 400 mg/kg (Rattus norvegicus [5]) [%],inhibition in vivo at 200 mg/kg (Rattus norvegicus [6]) [%],inhibition in vivo at 300 mg/kg (Rattus norvegicus [7]) [%],MPE (Mus musculus [8]) [%],MPE (Mus musculus [9]) [%],MPE (Mus musculus [10]) [%],inhibition in vivo at 300 mg/kg (Rattus norvegicus [11]) [%],inhibition in vivo at 400 mg/kg (Rattus norvegicus [12]) [%],inhibition in vivo at 200 mg/kg (Rattus norvegicus [13]) [%]
CC(=O)Oc1ccccc1C(=O)O [ASPIRIN],inactive,74.9,–,–,–,–,–,–,–,–,–,–,–
O=C(O)Cc1ccccc1Nc1c(Cl)cccc1Cl [DICLOFENAC SODIUM],–,–,94.5,inactive,–,–,–,–,–,–,–,–,–
CCc1nc2c3ccccc3oc2c2c1c(=O)oc1cc(OC)ccc12,–,–,–,–,67.2,35.7,78.1,24.3,24.4,39.5,–,–,–
Cc1ccc2c(c1)oc(=O)c1c(C)nc3c4ccccc4oc3c12,–,–,–,–,97,80.7,88.7,22.9,24.9,18.3,–,–,–
O=c1oc2cc(Cl)ccc2c2c1cnc1c3ccccc3oc12,–,–,–,–,29.4,19.2,26.3,1.8,3.4,6.8,–,–,–
Cc1nc2c3ccccc3oc2c2c1c(=O)oc1cc(Cl)ccc12,–,–,–,–,27.4,21.6,25.9,4.7,7.3,9.2,–,–,–
CCc1nc2c3ccccc3oc2c2c1c(=O)oc1cc(C)ccc12,–,–,–,–,46.5,35.4,41.7,2.4,4.9,7.1,–,–,–
Cc1ccc2c(c1)oc(=O)c1cnc3c4ccccc4oc3c12,–,–,–,–,–,–,–,1.3,22.9,10.8,31.4,18.3,24.6
Cc1ccc2oc(=O)c3cnc4c5ccccc5oc4c3c2c1,–,–,–,–,67.2,89,96.3,20.9,32.9,20.9,–,–,–
